Here are results for six molecules from PMC3292429 (Channels, 2009).

One experiment concerns IK1 channel. The settings on record: cited from earlier work; for mechanism of IK1 current increase: result in words.
Experiment [1] concerns IK1 (intermediate conductance Ca^2+-activated K channel, KCa3.1). As to the kind of experiment: Whole-cell patch clamp: IK1 current. The class given is cell-based, mouse. As to conditions: 10 μM DCEBIO, +50 mV, 80 nM free Ca^2+; result in words.
Experiment [2] concerns the target BK channel (Mus musculus, UniProt Q08460). As to conditions: result in words; cited from earlier work.
Experiment [3] deals with BK channel (large conductance Ca^2+-activated K channel, KCa1.1) in parotid acinar cells. The experiment in a line: Whole-cell patch clamp: IK1-induced inhibition of BK current. The class given is cell-based, mouse. For orientation: In patch-clamp work, channel activity is measured electrically.
For experiment [4], the system named is BK channel. The settings on record: result in words, cited from earlier work.
For experiment [5], the system named is IK1 (intermediate conductance Ca^2+-activated K channel, KCa3.1). The settings on record: result in words; cited from earlier work.
Setting [6] is: stated without own data or reference.

Entries after “also recorded” stand apart in the source; their conditions may differ.

Chain of BK channel (Mus musculus, UniProt Q08460) (Q08460 whole entry): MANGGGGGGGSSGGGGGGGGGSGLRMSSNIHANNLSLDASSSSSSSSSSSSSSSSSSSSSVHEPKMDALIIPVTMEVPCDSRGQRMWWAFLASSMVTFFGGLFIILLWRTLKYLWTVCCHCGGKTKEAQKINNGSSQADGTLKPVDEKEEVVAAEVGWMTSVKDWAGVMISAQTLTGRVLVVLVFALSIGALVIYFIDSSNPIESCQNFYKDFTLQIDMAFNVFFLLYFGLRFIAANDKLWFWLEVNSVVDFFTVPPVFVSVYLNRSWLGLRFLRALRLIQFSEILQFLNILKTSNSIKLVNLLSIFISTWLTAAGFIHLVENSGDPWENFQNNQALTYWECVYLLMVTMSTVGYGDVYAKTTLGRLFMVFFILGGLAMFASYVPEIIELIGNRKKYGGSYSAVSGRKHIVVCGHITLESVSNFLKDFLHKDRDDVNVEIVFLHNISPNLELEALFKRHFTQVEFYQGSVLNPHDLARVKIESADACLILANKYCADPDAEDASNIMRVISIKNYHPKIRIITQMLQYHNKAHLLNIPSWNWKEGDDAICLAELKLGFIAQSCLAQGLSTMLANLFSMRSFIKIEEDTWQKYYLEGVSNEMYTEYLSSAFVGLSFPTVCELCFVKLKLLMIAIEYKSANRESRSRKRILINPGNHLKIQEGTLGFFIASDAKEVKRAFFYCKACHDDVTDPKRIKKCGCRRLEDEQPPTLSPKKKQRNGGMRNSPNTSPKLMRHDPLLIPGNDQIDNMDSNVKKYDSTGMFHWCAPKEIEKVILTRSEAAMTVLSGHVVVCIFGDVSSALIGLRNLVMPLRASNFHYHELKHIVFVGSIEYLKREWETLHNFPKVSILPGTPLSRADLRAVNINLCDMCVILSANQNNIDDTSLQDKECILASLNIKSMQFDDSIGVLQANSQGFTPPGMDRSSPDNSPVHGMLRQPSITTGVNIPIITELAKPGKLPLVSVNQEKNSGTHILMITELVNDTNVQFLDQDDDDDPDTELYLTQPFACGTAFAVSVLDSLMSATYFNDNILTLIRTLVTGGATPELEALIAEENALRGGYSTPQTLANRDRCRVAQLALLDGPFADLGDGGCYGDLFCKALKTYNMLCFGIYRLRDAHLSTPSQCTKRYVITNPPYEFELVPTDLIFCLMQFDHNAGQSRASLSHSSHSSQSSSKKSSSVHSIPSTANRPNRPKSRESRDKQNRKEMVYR

Take `CCn1c(=O)[nH]c2ccccc21` [1-EBIO, 1-ethyl-2-benzimidazolinone]: in the experiment on IK1 channel (channels activated by 1-EBIO), the “share of closed events accounted for by the two closed times together” value is 97%, the “share of events with closed time 5 msec” value was 31% and the “share of events with closed time about 1.6 msec” value is recorded as 66%. For the same molecule, in the experiment on IK1 channel, the “mechanism of IK1 current increase” value is on record as “increase IK1 current by increasing the channel open probability”.
`CCn1c(=O)[nH]c2cc(Cl)c(Cl)cc21` [DCEBIO, 5,6-Dichloro-1-ethyl-1,3-dihydro-2H-benzimidazol-2-one]: the “activation of IK1 current” value in experiment [1] is “activated the time and voltage independent IK1 currents; also recorded: triggered the expected time- and voltage-independent current through these channels”. Also, the “mechanism of IK1 current increase” value in the experiment with IK1 channel was “increase IK1 current by increasing the channel open probability”. Also, the “effect on BK channels in cells from IK1 gene-ablated mice” value on BK channel [2] is listed as “no effects on BK channels”. Besides, the “reduction of BK current” value in experiment [3] (2 μM DCEBIO, pooled from 5 cells, voltage-independent (Fig. 5A)) amounted to 50%. Moreover, the “recovery of BK current after washout of DCEBIO” value in experiment [3] (10 μM DCEBIO, +50 mV, 80 nM free Ca^2+ in pipette, single example (Fig. 1)) was 96 % of control. Also, the “mean recovery of BK current after washout of DCEBIO” value in experiment [3] (10 μM DCEBIO, +50 mV, mean ± SEM, 9 experiments) was 94 ± 3%. Also, in experiment [3] (10 μM DCEBIO, +50 mV, reversible, result in words), the “effect on time-dependent BK current” value was “time-dependent BK current was reduced when IK1 channels were activated”. The “inhibition of BK channel current by IK1 activation” value in experiment [3] (10 μM DCEBIO, +50 mV, single example (Fig. 2)) is given as 60%. The “reduction in BK current by IK1 activation, remaining cells” value in experiment [3] (10 μM DCEBIO, four of 19 cells, omitted from analysis, result in words) is “only modest reductions”. The “voltage dependence of IK1-induced BK inhibition” value in experiment [3] (10 μM DCEBIO, range of test voltages, result in words) was “very little voltage dependence; also recorded: relatively little and no consistent voltage dependence”. Further, the “mean block of BK current by IK1 activation” value in experiment [3] (DCEBIO (10 μM), +50 mV, mean ± SEM, N = 5) is on record as 66 ± 6%.
With `CC[N+](CC)(CC)CC` [TEA], in the experiment on BK channel [4] (setting [6]), the “effect of internal TEA on BK single channel current level” value is reported as “reduction in the BK single channel current level (as does TEA)” and the “time dependence of open channel block by internal TEA” value was “no apparent time dependence”.
Regarding `Clc1ccccc1C(c1ccccc1)(c1ccccc1)n1cccn1` [TRAM-34], in experiment [5], the IK1 channel inhibition entry was “IK1 inhibitor”. Moreover, in experiment [3] (1 or 10 μM TRAM-34 in presence of DCEBIO, mean ± SEM, N = 5), the “mean BK level after IK1 block by TRAM-34” value is 88 ± 3 % of control.
As for `C[N+](C)(C)CCCCCCCCCC[N+](C)(C)C` [decamethonium], in the experiment with BK channel [4], the “competition of native β subunit inactivation with cytosolic blockers” value is recorded as “does not”.
For the molecule `CC(C)(O)[C@H]1O[C@H]2CC[C@@]3(C)[C@@](O)(CC[C@H]4Cc5c([nH]c6ccccc56)[C@@]43C)C2=CC1=O` [paxilline], in the experiment on BK channel [4], the “BK channel block by paxilline” value is on record as “specific BK channel blocker”.
